This passage reports IC50 results from patent US20260250290A1 (BRISTOL-MYERS SQUIBB COMPANY, priority 2023, published 2026).

One test addresses T1, full length SGK1 (Homo sapiens, UniProt O00141).
T1 construct: 125 μM full length SGK1 (Life Technologies Part #PR7358A); purchased Life Technologies PR7358A
T1 sequence (O00141 1-431): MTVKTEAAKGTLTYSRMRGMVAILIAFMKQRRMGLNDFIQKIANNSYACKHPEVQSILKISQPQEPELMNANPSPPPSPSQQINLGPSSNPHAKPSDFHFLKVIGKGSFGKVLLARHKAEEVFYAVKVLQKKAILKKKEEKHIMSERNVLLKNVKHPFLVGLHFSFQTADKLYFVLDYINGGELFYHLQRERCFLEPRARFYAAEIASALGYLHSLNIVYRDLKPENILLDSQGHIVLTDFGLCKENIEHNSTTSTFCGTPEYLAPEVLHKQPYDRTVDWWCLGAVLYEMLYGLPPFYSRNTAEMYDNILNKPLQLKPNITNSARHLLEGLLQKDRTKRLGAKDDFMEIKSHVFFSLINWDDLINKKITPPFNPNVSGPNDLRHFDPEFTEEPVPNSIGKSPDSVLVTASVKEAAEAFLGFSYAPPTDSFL
In words: SGK1 inhibition Assay A (Caliper LabChip electrophoretic separation of fluorescent peptide substrate and phosphorylated product). Type of test: biochemical. Conditions: Assay A; 20 μM ATP, 40 min incubation; read-out: SGK1 IC50.

The target of another test is T2, SGK1 (Homo sapiens, UniProt O00141).
T2 sequence (O00141 1-431): T1 sequence (O00141 1-431)
The experiment in a line: SGK1 inhibition Assay B (Echo mass spectrometry of phosphorylated peptide product). It counts as biochemical. The conditions noted are these: 60 min at room temperature.

pIC50: −log10 of the molar value.

For the molecule `Nc1ncnn2c(-c3ccnc(C(F)F)c3)cc(N3CCC[C@@H](NC(=O)c4ccc(C(F)F)s4)C3)c12` [Example 482, (R)-N-(1-(4-amino-7-(2-(difluoromethyl)pyridin-4-yl)pyrrolo[2,1-f][1,2,4]triazin-5-yl)piperidin-3-yl)-5-(difluoromethyl)thiophene-2-carboxamide], the negative-log IC50 (pIC50) (as a rule, the negative decadic logarithm of the IC50, by convention in mol/L) on full length SGK1 is 8.22; at SGK1, 8.52. As for `Cc1nc(OC2CCC(N3CCC3)CC2)c(C(=O)N[C@@H]2CCCN(c3cc(-c4nc(C(N)=O)cs4)n4ncnc(N)c34)C2)s1` (stereo partly drawn) [Example 1052, (R)-2-(4-amino-5-(3-(4-((4-(azetidin-1-yl)cyclohexyl)oxy)-2-methylthiazole-5-carboxamido)piperidin-1-yl)pyrrolo[2,1-f][1,2,4]triazin-7-yl)thiazole-4-carboxamide], the negative logarithm of the IC50 (pIC50) against SGK1 was 9.05. With `CC[C@H](CO)NC1CCC(Oc2nc(C)sc2C(=O)N[C@@H]2CCCN(c3cc(-c4csc(C(=O)NC)n4)n4ncnc(N)c34)C2)CC1` (stereo partly drawn) [Example 1053, 4-(4-amino-5-((R)-3-(4-((4-(((R)-1-hydroxybutan-2-yl)amino)cyclohexyl)oxy)-2-methylthiazole-5-carboxamido)piperidin-1-yl)pyrrolo[2,1-f][1,2,4]triazin-7-yl)-N-methylthiazole-2-carboxamide], on SGK1, the pIC50 is 9.10. In turn, `CCC(C)(C)NC1CCC(Oc2nc(C)sc2C(=O)N[C@@H]2CCCN(c3cc(-c4ccc(C(N)=O)c(F)n4)n4ncnc(N)c34)C2)CC1` (stereo partly drawn) [Example 1055, (R)—N-(1-(4-amino-7-(5-carbamoyl-6-fluoropyridin-2-yl)pyrrolo[2,1-f][1,2,4]triazin-5-yl)piperidin-3-yl)-2-methyl-4-((4-(tert-pentylamino)cyclohexyl)oxy)thiazole-5-carboxamide] gave a pIC50 against SGK1 of 9.30. As to `Cc1nc(OC2CCC(NC(C)(C)C)CC2)c(C(=O)N[C@@H]2CCCN(c3cc(-c4ccc(C(N)=O)c(F)n4)n4ncnc(N)c34)C2)s1` (stereo partly drawn) [Example 1056, (R)—N-(1-(4-amino-7-(5-carbamoyl-6-fluoropyridin-2-yl)pyrrolo[2,1-f][1,2,4]triazin-5-yl)piperidin-3-yl)-4-((4-(tert-butylamino)cyclohexyl)oxy)-2-methylthiazole-5-carboxamide], the negative logarithm of the IC50 (pIC50) against SGK1 is 9.15. Regarding `COc1nc(-c2cc(N3CCC[C@@H](NC(=O)c4sc(C)nc4O[C@H]4CC[C@@H](N(C)C)CC4)C3)c3c(N)ncnn23)ccc1C(N)=O` [Example 1057, N—((R)-1-(4-amino-7-(5-carbamoyl-6-methoxypyridin-2-yl)pyrrolo[2,1-f][1,2,4]triazin-5-yl)piperidin-3-yl)-4-(((1S,4S)-4 (dimethylamino)cyclohexyl)oxy)-2-methylthiazole5-carboxamide], the negative-log IC50 (pIC50) against SGK1 is 8.77. `CNC(=O)c1ccc(-c2cc(N3CCC[C@@H](NC(=O)c4sc(C)nc4O[C@H]4CC[C@@H](N(C)C)CC4)C3)c3c(N)ncnn23)nc1OC` [Example 1058, N—((R)-1-(4-amino-7-(6-methoxy-5-(methylcarbamoyl)pyridin-2-yl)pyrrolo[2,1-f][1,2,4]triazin-5-yl)piperidin-3-yl)-4-(((1S,4S)-4-(dimethylamino)cyclohexyl)oxy)-2-methylthiazole-5-carboxamide] had a negative logarithm of the IC50 (pIC50) against SGK1 of 8.96. In the case of “(R)-N-(1-(4-amino-7-(4-(5-methyl-1H-tetrazol-1-yl)phenyl)pyrrolo[2,1-f][1,2,4]triazin-5-yl)piperidin-3-yl)-2-(4-methylpiperazin-1-yl)pyrimidine-4-carboxamide [Example 857]”, the negative logarithm of the IC50 (pIC50) against SGK1 is 7.82. “N—((R)-1-(4-amino-7-(2-(tert-butyl)-1,1-dioxido-2,3-dihydrobenzo[d]isothiazol-5-yl)pyrrolo[2,1-f][1,2,4]triazin-5-yl)piperidin-3-yl)-5-chloro-3-(((1R,3s,5S)-8-methyl-8-azabicyclo [3.2.1]octan-3-yl)oxy)thiophene-2-carboxamide [Example 967]” gave a pIC50 against SGK1 of 9.05. For the molecule “N—((R)-1-(4-amino-7-(5-fluoro-1-(2-methoxyethyl)-6-oxo-1,6-dihydropyridin-3-yl)pyrrolo[2,1-f][1,2,4]triazin-5-yl)piperidin-3-yl)-5-chloro-3-(((1R,3s,5S)-8-methyl-8-azabicyclo[3.2.1]octan-3-yl)oxy)thiophene-2-carboxamide [Example 974]”, the negative-log IC50 (pIC50) against SGK1 is 9.00.
